29 compounds from ChEMBL document CHEMBL1149400, “Tethering identifies fragment that yields potent inhibitors of human caspase-1” (Bioorg Med Chem Lett, 2006) can be followed below.

As a reminder, the pKi is the Ki on a negative log10 scale, so that one unit is a factor of ten. The term pEC50 denotes the EC50 on a negative log10 scale, so that one unit is a factor of ten. The low end stands for a large EC50, the high end for a small EC50.

The target of one experiment is T1, Caspase-1 (Homo sapiens, UniProt P29466).
T1 sequence (P29466 whole entry): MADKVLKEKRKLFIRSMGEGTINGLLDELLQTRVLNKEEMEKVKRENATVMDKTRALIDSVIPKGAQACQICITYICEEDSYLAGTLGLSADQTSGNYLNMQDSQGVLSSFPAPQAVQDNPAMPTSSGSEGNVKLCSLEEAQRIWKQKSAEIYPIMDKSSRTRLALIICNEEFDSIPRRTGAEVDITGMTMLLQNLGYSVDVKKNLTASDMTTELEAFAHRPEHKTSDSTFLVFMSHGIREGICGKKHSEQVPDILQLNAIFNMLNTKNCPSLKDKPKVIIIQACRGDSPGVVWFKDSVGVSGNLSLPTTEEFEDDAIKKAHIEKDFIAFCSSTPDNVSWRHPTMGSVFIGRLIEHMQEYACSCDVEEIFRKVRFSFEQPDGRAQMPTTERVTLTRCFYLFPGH
Nature of the experiment: Inhibitory activity against human Caspase 1.

Another experiment concerns PBMC. Nature of the experiment: Inhibition of IL1-beta production in PBMC. It is filed as functional, cell-based. The conditions noted are these: Homo sapiens.

pEC50, pKi: −log10 of the molar value. Residues, ends and D or L forms follow the SMILES beside them. *: point of attachment. Cbz = O=C(OCc1ccccc1)*

Compound `O=C[C@H](CC(=O)O)NC(=O)c1ccc(CNC(=O)c2ccc(Nc3cnc4ccccc4n3)cc2)s1` showed a pKi on Caspase-1 of 7.46.

`O=C[C@H](CC(=O)O)NC(=O)C(CCCCNC(=O)c1ccc(Nc2cncc(Cl)n2)cc1)c1cccs1` (some centres not stated) gave a pKi at Caspase-1 of 7.27.

In turn, `O=C[C@H](CC(=O)O)NC(=O)c1cnc(CNC(=O)c2ccc(Nc3cnc4ccccc4n3)cc2)cn1` showed a pKi at Caspase-1 of 6.00.

In turn, `O=C[C@H](CC(=O)O)NC(=O)c1csc(CNC(=O)c2ccc(Nc3cnc4ccccc4n3)cc2)c1` showed a pKi at Caspase-1 of 6.92.

The compound `O=C[C@H](CC(=O)O)NC(=O)C(CCCCNC(=O)c1ccc(Oc2cnc3ccccc3n2)cc1)c1cccs1` (some centres not stated) showed a pEC50 with PBMC of 4.91.

At Caspase-1, `CCC(CCCCNC(=O)c1ccc(Nc2cnc3ccccc3n2)cc1)C(=O)N[C@H](C=O)CC(=O)O` (some centres not stated) showed a pKi of 7.80.

On Caspase-1, `O=C[C@H](CC(=O)O)NC(=O)c1cc(NC(=O)c2ccc(Nc3cnc4ccccc4n3)cc2)cs1` showed a pKi of 6.59.

`CC(C)[C@H](NC(=O)[C@H](Cc1ccc(O)cc1)NC(=O)OCc1ccccc1)C(=O)N[C@@H](C)C(=O)N[C@H](C=O)CC(=O)O`: the pKi at Caspase-1 is 6.74. In the experiment on PBMC, this compound showed a pEC50 of 5.41.

At Caspase-1, `O=C[C@H](CC(=O)O)NC(=O)C(CCCCNC(=O)c1ccc(Nc2cnc3ccccc3n2)cc1)c1ccccc1` (some centres not stated) gave a negative logarithm of the Ki (pKi) of 8.30.

As for `O=C[C@H](CC(=O)O)NC(=O)C(CCCCNC(=O)c1ccc(Nc2cnccn2)cc1)c1cccs1` (some centres not stated), the pKi on Caspase-1 is 7.00. The compound further showed a pEC50 in the experiment on PBMC of 4.70.

`O=C[C@H](CC(=O)O)NC(=O)CCCCCC(=O)Nc1ccc(Nc2cnc3ccccc3n2)cc1` showed a pKi on Caspase-1 of 5.68.

As to `CC(C)[C@H](NC(=O)c1ccc(Nc2cnc3ccccc3n2)cc1)C(=O)N[C@@H](C)C(=O)N[C@H](C=O)CC(=O)O`, the pKi on Caspase-1 is 8.40.

As for `O=C[C@H](CC(=O)O)NC(=O)CCCCCNC(=O)c1ccc(Oc2cnc3ccccc3n2)cc1`, the pKi at Caspase-1 was 5.62. In the experiment on PBMC, this compound showed a pEC50 of 4.57.

`O=C[C@H](CC(=O)O)NC(=O)Cc1ccc(CNC(=O)c2ccc(Nc3cnc4ccccc4n3)cc2)s1` showed a pKi at Caspase-1 of 6.92.

Compound `O=C[C@H](CC(=O)O)NC(=O)CCCNC(=O)c1ccc(Nc2cnc3ccccc3n2)cc1` gave a pKi at Caspase-1 of 5.28.

Take `O=C[C@H](CC(=O)O)NC(=O)CCCCNC(=O)c1ccc(Nc2cnc3ccccc3n2)cc1`: the pKi at Caspase-1 is 5.55.

In turn, `O=C[C@H](CC(=O)O)NC(=O)C(CCCCNC(=O)c1ccc(Nc2cnc3ccccc3n2)cc1)c1ccccc1F` (some centres not stated) gave a pKi on Caspase-1 of 8.10.

`O=C[C@H](CC(=O)O)NC(=O)CCCCCCNC(=O)c1ccc(Nc2cnc3ccccc3n2)cc1` had a pKi at Caspase-1 of 5.59.

Take `O=C[C@H](CC(=O)O)NC(=O)c1ccc(CNC(=O)c2ccc(Nc3cnc4ccccc4n3)cc2)cc1`: at Caspase-1, the pKi is 7.00.

For the compound `O=C[C@H](CC(=O)O)NC(=O)c1ccc(CNC(=O)c2ccc(Nc3cnc4ccccc4n3)cc2)nc1`, at Caspase-1, the pKi is 8.30.

In turn, `O=C[C@H](CC(=O)O)NC(=O)C(CCCCNC(=O)c1ccc(Nc2cnc3ccccc3n2)cc1)c1cccs1` (some centres not stated) showed a pKi on Caspase-1 of 8.15. Also, the pEC50 with PBMC was 4.69.

The compound `O=C[C@H](CC(=O)O)NC(=O)CCCCCNC(=O)c1ccc(Nc2cnc3ccccc3n2)cc1` had a pKi on Caspase-1 of 6.72. In the experiment with PBMC, this compound gave a pEC50 of 5.38.

Turning to `CC(C)[C@H](NC(=O)OCc1ccccc1)C(=O)N[C@@H](C)C(=O)N[C@H](C=O)CC(=O)O` (Cbz-Val-Ala-Asp-aldehyde), the pKi on Caspase-1 was 8.10.

`Cc1cc(C(=O)NCCCCC(C(=O)N[C@H](C=O)CC(=O)O)c2cccs2)ccc1Nc1cnc2ccccc2n1` (some centres not stated) had a pKi on Caspase-1 of 8.40. Further, the pEC50 in the experiment on PBMC was 5.11.

As for `O=C[C@H](CC(=O)O)NC(=O)CCCCCNC(=O)c1ccc(Nc2cnccn2)cc1`, the pKi at Caspase-1 was 4.43. In addition, the pEC50 with PBMC is < 3.70.

On to `Cc1cc(C(=O)NCCCCCC(=O)N[C@H](C=O)CC(=O)O)ccc1Nc1cnc2ccccc2n1`, for which the pKi on Caspase-1 was 6.49. This compound also showed a pEC50 with PBMC of 5.11.

Turning to `Cc1ccc2nc(Nc3ccc(C(=O)NCCCCC(C(=O)N[C@H](C=O)CC(=O)O)c4cccs4)cc3)cnc2c1` (some centres not stated), at Caspase-1, the pKi is 8.30.

With `O=C[C@H](CC(=O)O)NC(=O)[C@H]1CC[C@H](CNC(=O)c2ccc(Nc3cnc4ccccc4n3)cc2)CC1`, on Caspase-1, the pKi was 5.71.

At Caspase-1, `O=C[C@H](CC(=O)O)NC(=O)c1ccc(CNC(=O)c2ccc(Nc3cnc4ccccc4n3)cc2)o1` had a pKi of 5.68.
